Measured values taken from the NIST ThermoML archive (doi:10.1016/j.fluid.2019.03.023).
Numbers after ± are expanded uncertainties.

Test: activity coefficient (dimensionless); of the first substance listed, at infinite dilution; xn = mol fraction of the nth substance listed
Details: 101.33 kPa, Liquid, Chromatography, x1 = 0

Compound	activity coefficient (313.15 K)	activity coefficient (323.15 K)	activity coefficient (333.15 K)	activity coefficient (343.15 K)
Cc1ccccc1C [1,2-dimethylbenzene] + CCCCCCCCCCCCCC[P+](CCCCCC)(CCCCCC)CCCCCC.N#C[N-]C#N	0.525 ± 0.057	0.566 ± 0.061	0.613 ± 0.065	0.651 ± 0.069
Cc1cccc(C)c1 [1,3-dimethylbenzene] + CCCCCCCCCCCCCC[P+](CCCCCC)(CCCCCC)CCCCCC.N#C[N-]C#N	0.633 ± 0.067	0.654 ± 0.069	0.689 ± 0.072	0.716 ± 0.075
Cc1ccc(C)cc1 [1,4-dimethylbenzene] + CCCCCCCCCCCCCC[P+](CCCCCC)(CCCCCC)CCCCCC.N#C[N-]C#N	0.602 ± 0.064	0.64 ± 0.068	0.68 ± 0.071	0.706 ± 0.074
C=CCCCCCCCC [1-decene] + CCCCCCCCCCCCCC[P+](CCCCCC)(CCCCCC)CCCCCC.N#C[N-]C#N	1.58 ± 0.17	1.77 ± 0.18	1.98 ± 0.21	2.19 ± 0.23
C=CCCCCC [1-heptene] + CCCCCCCCCCCCCC[P+](CCCCCC)(CCCCCC)CCCCCC.N#C[N-]C#N	1.09 ± 0.11	1.13 ± 0.12	1.17 ± 0.12	1.22 ± 0.13
C#CCCCCC [1-heptyne] + CCCCCCCCCCCCCC[P+](CCCCCC)(CCCCCC)CCCCCC.N#C[N-]C#N	0.485 ± 0.054	0.57 ± 0.061	0.644 ± 0.068	0.721 ± 0.075
C#CCCCC [1-hexyne] + CCCCCCCCCCCCCC[P+](CCCCCC)(CCCCCC)CCCCCC.N#C[N-]C#N	0.442 ± 0.05	0.513 ± 0.056	0.593 ± 0.063	0.669 ± 0.07
C=CCCCCCCC [1-nonene] + CCCCCCCCCCCCCC[P+](CCCCCC)(CCCCCC)CCCCCC.N#C[N-]C#N	1.41 ± 0.15	1.53 ± 0.16	1.67 ± 0.17	1.82 ± 0.19
C=CCCC [1-pentene] + CCCCCCCCCCCCCC[P+](CCCCCC)(CCCCCC)CCCCCC.N#C[N-]C#N	0.796 ± 0.082	0.858 ± 0.088	0.922 ± 0.094	0.994 ± 0.1
C#CCCC [1-pentyne] + CCCCCCCCCCCCCC[P+](CCCCCC)(CCCCCC)CCCCCC.N#C[N-]C#N	0.413 ± 0.048	0.465 ± 0.052	0.547 ± 0.059	0.619 ± 0.066
CCC(C)(C)C [2,2-dimethylbutane] + CCCCCCCCCCCCCC[P+](CCCCCC)(CCCCCC)CCCCCC.N#C[N-]C#N	1.11 ± 0.11	1.2 ± 0.12	1.28 ± 0.13	1.35 ± 0.14
CC(C)=O [acetone] + CCCCCCCCCCCCCC[P+](CCCCCC)(CCCCCC)CCCCCC.N#C[N-]C#N	0.35 ± 0.043	0.363 ± 0.044	0.383 ± 0.045	0.405 ± 0.047
CC#N [acetonitrile] + CCCCCCCCCCCCCC[P+](CCCCCC)(CCCCCC)CCCCCC.N#C[N-]C#N	0.574 ± 0.062	0.6 ± 0.064	0.624 ± 0.066	0.651 ± 0.069
c1ccccc1 [benzene] + CCCCCCCCCCCCCC[P+](CCCCCC)(CCCCCC)CCCCCC.N#C[N-]C#N	0.319 ± 0.04	0.363 ± 0.044	0.403 ± 0.047	0.44 ± 0.05
CCCCO [butan-1-ol] + CCCCCCCCCCCCCC[P+](CCCCCC)(CCCCCC)CCCCCC.N#C[N-]C#N	0.421 ± 0.048	0.445 ± 0.05	0.453 ± 0.051	0.47 ± 0.052
CCC(C)=O [butanone] + CCCCCCCCCCCCCC[P+](CCCCCC)(CCCCCC)CCCCCC.N#C[N-]C#N	0.422 ± 0.048	0.448 ± 0.051	0.478 ± 0.053	0.513 ± 0.056
C1CCCCC1 [cyclohexane] + CCCCCCCCCCCCCC[P+](CCCCCC)(CCCCCC)CCCCCC.N#C[N-]C#N	0.733 ± 0.076	0.78 ± 0.081	0.832 ± 0.085	0.901 ± 0.092

Compound	activity coefficient (313.15 K)	activity coefficient (323.15 K)	activity coefficient (333.15 K)	activity coefficient (343.15 K)
C1=CCCCC1 [cyclohexene] + CCCCCCCCCCCCCC[P+](CCCCCC)(CCCCCC)CCCCCC.N#C[N-]C#N	0.647 ± 0.068	0.709 ± 0.074	0.76 ± 0.079	0.813 ± 0.084
C1CCCCCCC1 [cyclooctane] + CCCCCCCCCCCCCC[P+](CCCCCC)(CCCCCC)CCCCCC.N#C[N-]C#N	0.89 ± 0.091	0.928 ± 0.095	0.978 ± 0.099	1.05 ± 0.11
CCCCCCCCCC [decane] + CCCCCCCCCCCCCC[P+](CCCCCC)(CCCCCC)CCCCCC.N#C[N-]C#N	2.19 ± 0.23	2.34 ± 0.25	2.54 ± 0.27	2.74 ± 0.29
CCO [ethanol] + CCCCCCCCCCCCCC[P+](CCCCCC)(CCCCCC)CCCCCC.N#C[N-]C#N	0.339 ± 0.042	0.359 ± 0.043	0.383 ± 0.045	0.401 ± 0.047
CCc1ccccc1 [ethylbenzene] + CCCCCCCCCCCCCC[P+](CCCCCC)(CCCCCC)CCCCCC.N#C[N-]C#N	0.567 ± 0.061	0.606 ± 0.064	0.653 ± 0.069	0.7 ± 0.073
CCCCCCC [heptane] + CCCCCCCCCCCCCC[P+](CCCCCC)(CCCCCC)CCCCCC.N#C[N-]C#N	1.36 ± 0.14	1.43 ± 0.15	1.52 ± 0.16	1.61 ± 0.17
C=CCCCC [hex-1-ene] + CCCCCCCCCCCCCC[P+](CCCCCC)(CCCCCC)CCCCCC.N#C[N-]C#N	0.915 ± 0.093	0.979 ± 0.1	1.06 ± 0.11	1.11 ± 0.11
CCCCCC [hexane] + CCCCCCCCCCCCCC[P+](CCCCCC)(CCCCCC)CCCCCC.N#C[N-]C#N	1.16 ± 0.12	1.24 ± 0.13	1.32 ± 0.14	1.39 ± 0.14
CO [methanol] + CCCCCCCCCCCCCC[P+](CCCCCC)(CCCCCC)CCCCCC.N#C[N-]C#N	0.306 ± 0.04	0.323 ± 0.041	0.344 ± 0.042	0.361 ± 0.044
CCCCCCCCC [nonane] + CCCCCCCCCCCCCC[P+](CCCCCC)(CCCCCC)CCCCCC.N#C[N-]C#N	1.8 ± 0.19	1.93 ± 0.2	2.09 ± 0.22	2.24 ± 0.23
CCCCC [pentane] + CCCCCCCCCCCCCC[P+](CCCCCC)(CCCCCC)CCCCCC.N#C[N-]C#N	1 ± 0.1	1.06 ± 0.11	1.12 ± 0.11	1.19 ± 0.12
CCCO [propan-1-ol] + CCCCCCCCCCCCCC[P+](CCCCCC)(CCCCCC)CCCCCC.N#C[N-]C#N	0.396 ± 0.046	0.41 ± 0.047	0.424 ± 0.049	0.443 ± 0.05
C1CCOC1 [tetrahydrofuran] + CCCCCCCCCCCCCC[P+](CCCCCC)(CCCCCC)CCCCCC.N#C[N-]C#N	0.351 ± 0.043	0.365 ± 0.044	0.384 ± 0.045	0.404 ± 0.047
c1ccsc1 [thiophene] + CCCCCCCCCCCCCC[P+](CCCCCC)(CCCCCC)CCCCCC.N#C[N-]C#N	0.372 ± 0.044	0.383 ± 0.045	0.412 ± 0.048	0.429 ± 0.049
Cc1ccccc1 [toluene] + CCCCCCCCCCCCCC[P+](CCCCCC)(CCCCCC)CCCCCC.N#C[N-]C#N	0.419 ± 0.048	0.458 ± 0.051	0.489 ± 0.054	0.523 ± 0.057
O [water] + CCCCCCCCCCCCCC[P+](CCCCCC)(CCCCCC)CCCCCC.N#C[N-]C#N	1.95 ± 0.2	1.82 ± 0.19	1.73 ± 0.18	1.6 ± 0.17
